Measurements published in paper PMC4372538, “Advantages of the Phosphatidylserine-Recognizing Peptide PSP1 for Molecular Imaging of Tumor Apoptosis Compared with Annexin V” (PLoS ONE, 2015).
Entries after “also recorded” stand apart in the source; their conditions may differ. Like-named read-outs stand apart in the source and are kept apart here.

Experiments:
apoptotic H460 cells [1] = experiment: confocal microscopy of binding to apoptotic H460 cells; type: cell-based, human
PS liposomes = experiment: SPR binding to PS liposomes
Excerpt: To compare the kinetics of annexin V and PSP1 peptide binding to PS liposomes, SPR spectroscopy was employed (Reichert Inc, NY, USA). PC and PS liposomes (0.8:0.2 PC:PS) were generated as previously described and were homogenously purified using a liposome mini-extruder with a 100 nm membrane filter, based on the manufacturer’s protocol (Avanti Polar Lipids). […] Briefly, phytosphingosine was immobilized by activating the carboxymethyl groups on dextran-coated chips (Reichert Life Sciences) through a reaction with N-hydroxysuccinimide (Sigma-Aldrich), followed by covalent bonding of the ligands to the chip surface via amide linkages and blocking of excess activated carboxyls with ethanolamine. The purified PS or PC liposomes were captured on the phytosphingosine layer at a flow rate of 5 μl/min in liposome immobilization buffer (10 mM Tris-HCl (pH 8.0), 100 mM NaCl, and 2 mM CaCl2). To use the PC-immobilized surface as a control, the injected PS or PC liposome volume was adjusted to an immobilization level of approximately 4000±200 RU. Different concentrations of the PSP1 peptide (0.313 to 5 μM) and annexin V (3.13 to 100 nM) in running buffer (10 mM Tris-HCl (pH 8.0), 100 mM NaCl, 2 mM CaCl2, and 62.5 μg/ml BSA) were allowed to flow over the surfaces bound to the immobilized liposomes for 3 min at a rate of 30 μl/min. The sensor surface was regenerated after each association and dissociation cycle by injecting 10 mM EDTA for 20 s, followed by 50 mM NaOH for 10 s. The interaction of the ligand and the analyte was analyzed using Scrubber 2 Biologic software (http://www.biologic.com.au/). The binding kinetics was assessed by determining the association (kon), dissociation (koff), and equilibrium (KD) constants.
The in vitro binding affinity of PSP1 and annexin V for PS was further examined using SPR analysis (Fig. 2). […] We immobilized PS liposomes on the surface of an SPR chip, applied a series of different concentrations of PSP1 or annexin V, and examined the binding kinetics. PS-specific binding was determined by subtracting binding responses to a PC liposome-coated surface from those obtained using a PS liposome-coated […] surface.
Fig 2 In vitro SPR analysis of PSP1 and annexin V binding to PS liposomes. (A) The indicated concentrations of PSP1 were injected onto the liposome-immobilized surface. Responses (RU) from the PC liposome-coated surface (reference) were subtracted from those from the PS:PC (2:8) liposome surface to monitor PS-specific binding. The equilibration binding constant (KD) and the association (Kon) and dissociation (Koff) rate constants were estimated using the Scrubber program. (B) Plots of the RU values of annexin V at the indicated concentrations.

[2] = test system: apoptotic tumor cells in H460 tumor-bearing mice; experiment: in vivo fluorescence imaging of tumors after apoptosis induction; design: species or system BALB/c nude mice; human H460 tumor; conditions: Cy7.5-labeled
Experimental: Female nude mice (BALB/c nude; body weight, 20±3 g; n = 5) were housed in a specific pathogen-free environment at 22±2°C and 55±5% relative humidity with light. Tumors were generated by subcutaneously injecting H460 cells (5×10^6 cells) into the right shoulder of 6-wk-old female BALB/c nude mice and allowing them to grow for 3 weeks (size of 0.5 to 0.7 cm). For in vivo analysis of tumor targeting, the tumor-bearing mice were either treated or not treated with a single dose of camptothecin (10 mg/kg) 24 hrs prior to intravenous injection of Cy7.5-labeled PSP1, Cy7.5-annexin V or Cy7.5-labeled control peptide into the tail vein under inhalational anesthesia (1% (w/v) isoflurane in 2 L oxygen).
In vivo fluorescence images were taken at different time intervals after peptide injection (10 min, 1 h, 3 h, 6 h, and 12 h) using an eXplore Optix system (ART Advanced Research Technologies Inc., Montreal, Canada), which has excitation/emission wavelengths of 778 nm/805 nm. The obtained images were processed using eXplore Optix OptiView Software and normalized based on the baseline fluorescence, assessed for each mouse prior to peptide injection.
Fig 4 In vivo imaging of tumors after apoptosis induction. (A) Cy7.5-labelled PSP1peptide, control peptide, or annexin V was systematically injected into the tail vein of tumor-bearing nude mice treated with camptothecin 24 hrs before injection. The same amount of annexin V was also injected into non-camptothecin-treated tumor-bearing mice as a control. The homing of the peptides was examined after the indicated times using an optical imaging system. The white dotted circles indicate the tumors. (B) Histological examination of tumor tissues after homing of PSP1 and annexin V, performed under a fluorescence microscope. Tumor cell apoptosis was observed by TUNEL staining.

[3] = test system: necrotic and nonapoptotic cells with exposed anionic lipids; conditions: under specific physiological or pathological conditions, ref [12], cited from earlier work
Excerpt: (§1) The exposure of phosphatidylserine (PS) on the outer surface of the plasma membrane bilayer, an early biochemical event in apoptosis, is an attractive target for molecular imaging of dying cells. During chemo- and radiotherapy, subsequent necrosis also results in PS exposure due to disruption of the plasma membrane’s integrity. […] The stability and biodistribution of annexin V derivatives depend ...

[4] = calcium-dependent; ref [9],[10]; cited from earlier work
Excerpt: as §1

apoptotic H460 cells [5] = experiment: FACS binding to apoptotic H460 cells; type: cell-based, human; conditions: FITC-labeled, etoposide 50 μM 22 hrs, 2, 10, 20, 50 μg/ml, binding buffer 10 mM Hepes pH 7.4, 150 mM NaCl ± 2 mM CaCl2, 4°C, 1 hr
Experimental: The human lung cancer cell H460, which was obtained from the American Type Culture Collection (ATCC), was maintained in RPMI-1640 media supplemented with 10% heat-inactivated fetal bovine serum (FBS) and penicillin G/streptomycin at 37°C in a humidified atmosphere of 95% air and 5% CO2.
To induce apoptosis of lung tumor cells (H460), the cells (5×10^6 cell) were grown overnight and then treated with etoposide (50 μM) (Sigma) in serum-free media for 22 hrs, followed by washing with phosphate-buffered saline (PBS) and binding buffer (10 mM Hepes (pH 7.4), 150 mM NaCl, and 2 mM CaCl2).
Control peptide (grey); FITC-NSSSVDK.

[6] = PS:PC (2:8) liposomes, PC response subtracted, Tris-HCl pH 8.0, 2 mM CaCl2, Scrubber, value from picture

Kd (PS liposomes; PS liposomes, PC liposome response subtracted, Tris-HCl pH 8.0, 2 mM CaCl2, read-out: in vitro binding affinity (equilibrium binding constant)): 3.1 nM
equilibration binding constant (KD) (PS liposomes; PS:PC (2:8) liposomes on phytosphingosine/CMDH chip, PC liposome response subtracted, 10 mM Tris-HCl pH 8.0, 100 mM NaCl, 2 mM CaCl2, 62.5 μg/ml BSA, PSP1 0.313 to 5 μM, annexin V 3.13 to 100 nM, 3 min, 30 μl/min, Scrubber 2, values from picture): 3.15 nM
association rate constant (Kon) (PS liposomes; [6]): 1.05±0.76×10^6 M^-1S^-1
dissociation rate constant (Koff) (PS liposomes; [6]): 1.75±1.28×10^-3 S^-1
Substance: annexin V: endogenous 36-kDa human protein that binds to PS with nanomolar affinity; His-tagged, expressed in Escherichia coli BL-21
apoptotic cell-specific signal (confocal microscopy) (apoptotic H460 cells [1]; FITC-labeled, 20 μg/ml, apoptotic H460 (etoposide 50 μM), 4°C, 1 hr): significantly weaker at the same concentration
predicted sensitivity of annexin V over PSP1 (apoptotic H460 cells [1]; same concentration, predicted from KD ratio, molar concentration 1/16th and 0.7 FITC groups/molecule, not observed): 150 fold
duration of in vivo fluorescence signal in tumor region ([2]; i.v. tail vein, camptothecin 10 mg/kg 24 hrs before, PSP1 10 μg/200 μl (23.16 μM), annexin V 100 μg/200 μl (14.3 μM)): more than 12 hrs
in vivo tumor homing, non-camptothecin-treated ([2]; i.v., 100 μg/200 μl, non-camptothecin-treated tumor-bearing mice): did not home to the tumor region
in vivo tumor homing ([2]; i.v., camptothecin-treated H460 tumor-bearing mice, n = 5, imaging 10 min to 12 h, PSP1 10 μg/200 μl, annexin V and control peptide 100 μg/200 μl): weak signals; also recorded: rapidly observed in the tumor region
specificity of annexin V for apoptotic cells [3]: not entirely specific for apoptotic cells
specificity of annexin V for apoptotic cells ([3]; listed as Annexin V): targets necrotic as well as nonapoptotic cells with exposed anionic lipids
PS binding affinity of annexin V [4]: binds to PS with nanomolar affinity in a calcium-dependent manner
binding to apoptotic H460 cells (FACS) (apoptotic H460 cells [5]): specifically bound to apoptotic H460 cells in a concentration-dependent manner
binding to apoptotic H460 cells (FACS) (apoptotic H460 cells [5]; listed as Annexin V): appeared to exhibit a greater ability to bind to apoptotic cells
